Legend:
Type in all cases: in vivo, human
[1] = tested on: patient with hearing impairment; assay: Pure-tone threshold audiometry in patient case examples under oral therapy; conditions: 2250 mg troxerutin orally daily
Description: (§1) patient with tinnitus and vertigo attacks for 4 months.
Moderate hearing loss existed which was confirmed by pure-tone threshold audiometry to be a loss of hearing especially in the low and high frequency ranges. The underlying disease present was insulin-dependent diabetes mellitus. The findings existed for 4 months with the tendency for progressive worsening. […]

[2] = tested on: patient with tinnitus and vertigo attacks; assay: Frequency of vertigo attacks in patient case example 3; conditions: Case 3; 2250 mg troxerutin orally daily, 4-week therapy
Procedure: as §1
(§2) A 4-week therapy with 2250 mg of troxerutin orally daily followed. Under this, hearing improved in the 1st week by 10 dB in the low frequency range and by 5 dB in the high frequency range. There was no change in the frequency of vertigo attacks (1 to 4 times within 2 days).

[3] = tested on: patient with tinnitus and vertigo attacks; assay: Tinnitus pattern in patient case example 3; conditions: Case 3; 2250 mg troxerutin orally daily; 4th week of treatment
Procedure: as §1, §2

3′,4′,7-tris-O-(β-hydroxyethyl)rutin [troxerutin]
improvement in the audiogram, high-frequency range, right ear ([1]; Case 1, 4-week therapy): 10 dB | improvement of audiogram, high frequency range ([1]; Case 2, after 1 week): minor improvement | improvement of audiogram, low frequency range ([1]; Case 2, after 1 week): 10 dB | improvement of hearing, low frequency range ([1]; Case 3, moderate hearing loss, 1st week): 10 dB | improvement of hearing, high frequency range ([1]; Case 3, 1st week): 5 dB | improvement of hearing, high frequency range ([1]; Case 4, week 3): marginally | improvement of hearing, low frequency range ([1]; Case 4, week 3): 10 dB | frequency of vertigo attacks [2]: no change | tinnitus pattern [3]: intermittent with relatively frequent absences which lasted for hours
